In ChEMBL document CHEMBL5512604, “Small molecules targeting selected histone methyltransferases (HMTs) for cancer treatment: Current progress and novel strategies” (Eur J Med Chem, 2024):
Blank lines part the entries; values can stand above or below the compound they belong to.

Columns and labels:
[1] = biological target: Histone-lysine N-methyltransferase EZH2 (Homo sapiens, UniProt Q15910); experiment: Displacement of [3H-SAM] from full-length EZH2 (2 to 746 residues) (unknown origin) using a core histone substrate
[2] = biological target: von Hippel-Lindau disease tumor suppressor/Histone-lysine N-methyltransferase EZH2 (Homo sapiens, UniProt Q15910+P40337); experiment: PROTAC activity at VHL/EZH2 in human MDA-MB-453 cells assessed as protein degradation incubated for 48 hrs by Western blot analysis; assay type: cell-based
MDA-MB-453 = experiment: Antiproliferative activity against human MDA-MB-453 cells assessed as inhibition of cell viability incubated for 5 days by CCK8 assay; assay type: functional, cell-based; details: MDA-MB-453, 120 h
[3] = biological target: T1, Histone-lysine N-methyltransferase EZH1 (Homo sapiens, UniProt Q92800); experiment: Displacement of [3H-SAM] from full-length EZH1 (2 to 746 residues) (unknown origin) using a core histone substrate
T1 sequence (Q92800 whole entry): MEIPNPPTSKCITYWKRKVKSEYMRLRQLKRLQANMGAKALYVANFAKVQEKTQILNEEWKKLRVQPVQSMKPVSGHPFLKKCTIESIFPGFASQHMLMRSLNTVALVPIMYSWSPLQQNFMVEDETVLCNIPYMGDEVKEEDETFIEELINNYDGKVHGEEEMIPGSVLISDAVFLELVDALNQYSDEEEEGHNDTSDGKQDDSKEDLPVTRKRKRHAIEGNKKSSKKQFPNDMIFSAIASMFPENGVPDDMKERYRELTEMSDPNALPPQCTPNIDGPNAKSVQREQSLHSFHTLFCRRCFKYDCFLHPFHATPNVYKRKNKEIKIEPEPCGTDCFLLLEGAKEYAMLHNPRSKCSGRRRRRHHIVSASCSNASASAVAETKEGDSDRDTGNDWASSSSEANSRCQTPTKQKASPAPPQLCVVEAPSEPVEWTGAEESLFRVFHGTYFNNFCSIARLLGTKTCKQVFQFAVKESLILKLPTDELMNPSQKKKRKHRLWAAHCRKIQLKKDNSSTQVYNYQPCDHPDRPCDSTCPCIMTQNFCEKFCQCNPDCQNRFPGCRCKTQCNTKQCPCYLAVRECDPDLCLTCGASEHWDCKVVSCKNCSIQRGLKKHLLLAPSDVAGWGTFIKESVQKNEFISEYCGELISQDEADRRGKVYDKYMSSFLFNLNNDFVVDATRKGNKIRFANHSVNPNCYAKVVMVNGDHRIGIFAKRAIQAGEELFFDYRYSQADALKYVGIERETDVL

[4] = biological target: Protein arginine N-methyltransferase 5 (Homo sapiens, UniProt O14744); experiment: Inhibition of PRMT5 (unknown origin) by HotSpot profiling analysis
SU-DHL-6 [5] = experiment: Potency index, ratio of EPZ6438 IC50 to test compound IC50 for antiproliferative activity against human SU-DHL-6 cells; assay type: functional
SU-DHL-6 [6] = experiment: Antiproliferative activity against human SU-DHL-6 cells; assay type: functional, cell-based
MCF7 = experiment: Antiproliferative activity against human MCF7 cells assessed as inhibition of cell growth incubated for 72 hrs; assay type: functional, cell-based; details: MCF7, 72 h
MDA-MB-231 = experiment: Antiproliferative activity against human MDA-MB-231 cells assessed as inhibition of cell growth incubated for 72 hrs; assay type: functional, cell-based; details: MDA-MB-231, 72 h
in vitro = details: human, HEK293 cells
[7] = biological target: T2, Histone-lysine N-methyltransferase EHMT2 (Homo sapiens, UniProt Q96KQ7); experiment: Inhibition of G9a in human MDA-MB-231 cells assessed as decrease in H3K9Me2 level by ICW assay; assay type: cell-based
T2 sequence (Q96KQ7 whole entry): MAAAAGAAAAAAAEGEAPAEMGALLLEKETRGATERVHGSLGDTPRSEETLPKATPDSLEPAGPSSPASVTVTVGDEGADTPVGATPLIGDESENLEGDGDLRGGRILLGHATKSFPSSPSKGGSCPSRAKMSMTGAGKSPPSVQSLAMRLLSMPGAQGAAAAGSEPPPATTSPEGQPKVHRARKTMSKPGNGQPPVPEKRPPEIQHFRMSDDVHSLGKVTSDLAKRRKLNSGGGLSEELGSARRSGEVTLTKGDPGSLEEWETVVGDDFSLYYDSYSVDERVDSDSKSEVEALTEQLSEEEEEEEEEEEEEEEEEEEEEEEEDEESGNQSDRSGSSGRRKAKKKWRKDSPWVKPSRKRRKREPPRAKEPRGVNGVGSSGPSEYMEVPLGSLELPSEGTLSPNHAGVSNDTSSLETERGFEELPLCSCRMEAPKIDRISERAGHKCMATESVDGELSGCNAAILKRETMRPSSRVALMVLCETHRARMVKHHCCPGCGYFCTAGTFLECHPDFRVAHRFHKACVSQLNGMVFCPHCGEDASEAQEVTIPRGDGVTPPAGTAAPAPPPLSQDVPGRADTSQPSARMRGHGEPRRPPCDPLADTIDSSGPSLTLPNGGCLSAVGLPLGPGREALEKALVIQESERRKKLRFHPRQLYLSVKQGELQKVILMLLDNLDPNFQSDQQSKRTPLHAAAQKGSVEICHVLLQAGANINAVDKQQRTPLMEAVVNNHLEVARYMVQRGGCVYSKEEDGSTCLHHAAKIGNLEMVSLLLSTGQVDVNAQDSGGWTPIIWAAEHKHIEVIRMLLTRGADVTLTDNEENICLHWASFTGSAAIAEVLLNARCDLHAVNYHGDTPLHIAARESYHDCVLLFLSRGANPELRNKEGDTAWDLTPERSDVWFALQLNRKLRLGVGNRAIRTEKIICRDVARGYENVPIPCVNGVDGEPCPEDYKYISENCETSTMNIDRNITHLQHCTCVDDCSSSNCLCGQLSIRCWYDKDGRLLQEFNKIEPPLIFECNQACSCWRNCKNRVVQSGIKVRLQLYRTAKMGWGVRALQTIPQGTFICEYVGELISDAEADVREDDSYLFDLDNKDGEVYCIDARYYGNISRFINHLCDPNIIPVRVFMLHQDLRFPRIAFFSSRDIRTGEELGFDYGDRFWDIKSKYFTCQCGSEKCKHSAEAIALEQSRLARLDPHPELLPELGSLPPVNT

A549 = experiment: Antiproliferative activity against human A549 cells assessed as inhibition of cell growth incubated for 72 hrs; assay type: functional, cell-based; details: A549, 72 h
Histone deacetylase [8] = experiment: Inhibition of HDAC in human HeLa cells using Boc-K(Ac)-AMC as substrate; assay type: cell-based
Histone deacetylase [9] = experiment: Inhibition of HDAC in human K562 cells using Boc-K(Ac)-AMC as substrate; assay type: cell-based
[10] = biological target: Bromodomain-containing protein 4 (Homo sapiens, UniProt O60885); experiment: Induction of BRD4 degradation in human 231MFP cells; assay type: cell-based

Sequence of Protein arginine N-methyltransferase 5 (O14744 whole entry): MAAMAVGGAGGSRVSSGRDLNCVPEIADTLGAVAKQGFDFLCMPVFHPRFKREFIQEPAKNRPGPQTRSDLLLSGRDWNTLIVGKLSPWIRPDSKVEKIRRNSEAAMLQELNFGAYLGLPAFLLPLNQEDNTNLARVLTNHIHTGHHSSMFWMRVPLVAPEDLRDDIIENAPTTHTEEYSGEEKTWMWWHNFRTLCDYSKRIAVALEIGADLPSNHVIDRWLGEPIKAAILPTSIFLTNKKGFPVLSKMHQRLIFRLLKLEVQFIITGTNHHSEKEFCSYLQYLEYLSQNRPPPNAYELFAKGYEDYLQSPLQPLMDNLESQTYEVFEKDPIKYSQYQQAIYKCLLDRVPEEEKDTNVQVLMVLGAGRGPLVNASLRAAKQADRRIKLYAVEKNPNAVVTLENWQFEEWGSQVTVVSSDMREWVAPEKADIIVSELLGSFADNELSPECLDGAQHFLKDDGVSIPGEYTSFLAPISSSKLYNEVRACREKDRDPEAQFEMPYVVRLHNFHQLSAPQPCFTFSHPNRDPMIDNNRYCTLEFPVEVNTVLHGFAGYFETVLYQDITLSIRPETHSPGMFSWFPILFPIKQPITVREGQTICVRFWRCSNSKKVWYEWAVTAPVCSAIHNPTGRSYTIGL
Sequence of von Hippel-Lindau disease tumor suppressor/Histone-lysine N-methyltransferase EZH2 (Q15910 whole entry): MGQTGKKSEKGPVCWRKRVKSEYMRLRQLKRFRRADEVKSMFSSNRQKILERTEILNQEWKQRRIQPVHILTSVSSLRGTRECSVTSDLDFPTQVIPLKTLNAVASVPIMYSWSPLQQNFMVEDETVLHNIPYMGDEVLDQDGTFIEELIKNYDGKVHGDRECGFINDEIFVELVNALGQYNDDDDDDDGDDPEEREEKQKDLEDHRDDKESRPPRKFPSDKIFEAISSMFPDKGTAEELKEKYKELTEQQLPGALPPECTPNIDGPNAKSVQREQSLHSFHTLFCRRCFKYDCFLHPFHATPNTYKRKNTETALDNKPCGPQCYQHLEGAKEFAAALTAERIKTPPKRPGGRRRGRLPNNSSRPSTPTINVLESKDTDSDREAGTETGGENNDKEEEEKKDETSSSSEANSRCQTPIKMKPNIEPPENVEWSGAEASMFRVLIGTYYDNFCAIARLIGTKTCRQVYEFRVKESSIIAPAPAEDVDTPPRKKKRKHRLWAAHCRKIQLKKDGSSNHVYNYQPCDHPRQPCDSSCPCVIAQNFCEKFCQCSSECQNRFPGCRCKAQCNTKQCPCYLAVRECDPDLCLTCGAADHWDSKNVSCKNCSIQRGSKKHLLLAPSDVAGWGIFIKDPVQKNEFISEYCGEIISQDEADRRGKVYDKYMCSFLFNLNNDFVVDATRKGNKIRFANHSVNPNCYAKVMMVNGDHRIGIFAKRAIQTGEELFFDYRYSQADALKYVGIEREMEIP
Sequence of von Hippel-Lindau disease tumor suppressor/Histone-lysine N-methyltransferase EZH2 (P40337 whole entry): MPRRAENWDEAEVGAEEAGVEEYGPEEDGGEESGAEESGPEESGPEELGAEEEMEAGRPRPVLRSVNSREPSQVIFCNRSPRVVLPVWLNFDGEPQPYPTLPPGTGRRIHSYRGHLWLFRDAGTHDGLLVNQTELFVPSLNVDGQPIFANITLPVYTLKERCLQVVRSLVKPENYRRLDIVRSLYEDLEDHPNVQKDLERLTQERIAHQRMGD
Sequence of Histone-lysine N-methyltransferase EZH2 (Q15910 whole entry, the tested form may be a part): as the sequence (Q15910 whole entry) above

Compound: CCN(c1cc(-c2ccc(CN3CCN(C(=O)c4cnn(CCOCCOCCOCCNC(=O)CN5CCN(C(=O)N6C(c7ccc(OC)cc7OC(C)C)=N[C@H](c7ccc(Cl)cc7)[C@@H]6c6ccc(Cl)cc6)CC5=O)n4)CC3)cc2)cc(C(=O)NCc2c(C)cc(C)[nH]c2=O)c1C)C1CCOCC1
Ratio IC50 (SU-DHL-6 [5]): 6
IC50 (SU-DHL-6 [6]): 3.75 µM

Compound: Cc1sc2c(c1C)C(c1ccc(Cl)cc1)=N[C@H](CC(=O)NCCCCOc1ccc(C3CC(c4ccc(Br)cc4)=NN3C(=O)CCl)cc1)c1nnc(C)n1-2 (stereo partly specified)
DC50 [10]: 14 µM

Compound: CCN(c1cc(-c2ccc(CN3CCOCC3)cc2)cc(C(=O)NCc2c(C)cc(C)[nH]c2=O)c1C)C1CCOCC1 [TAZEMETOSTAT]
IC50 (SU-DHL-6 [6]): 21.9 µM

More lines, now with the values ahead:

IC50 [1]: 0.062 µM
DC50 [2]: 0.14 µM
IC50 (MDA-MB-453): 2.3 µM
IC50 [3]: 0.0086 µM
Compound: CCN(c1cc(-c2ccc(CN3CCN(C(=O)CCCCCCCC(=O)N[C@H](C(=O)N4C[C@H](O)C[C@H]4C(=O)NCc4ccc(-c5scnc5C)cc4)C(C)(C)C)CC3)cc2)cc(C(=O)NCc2c(C)cc(C)[nH]c2=O)c1C)C1CCOCC1

IC50 [4]: 0.00042 µM
Compound: N=C(N)NCCC[C@H](N)C(=O)NCC(=O)N[C@@H](CCCN)C(=O)N[C@H](CCCNC(=N)NCCCSC[C@H]1O[C@@H](n2cnc3c(N)ncnc32)[C@H](O)[C@@H]1O)C(N)=O

IC50 (MCF7): 10 µM
IC50 (MDA-MB-231): 10 µM
IC50 at 72 h (in vitro): 19.9 µM
IC50 [7]: 7.14 µM
IC50 (A549): 10 µM
IC50 (Histone deacetylase [8]): 13.8 µM
IC50 (Histone deacetylase [9]): 5.73 µM
Compound: COc1cc2nc(NCCNC(=O)CCCCC(=O)NO)nc(NC3CCN(Cc4ccccc4)CC3)c2cc1OC
